From US20230265151A1, “GIP/GLP1 CO-AGONIST COMPOUNDS” (priority 2020, published 2023) come the findings set out here.

Like-named read-outs stand apart in the source and are kept apart here.

Holding throughout (type): cell-based
For test [1], the target named is hGLP-1R (Homo sapiens, UniProt P43220). Nature of the test: Functional cAMP formation (HTRF) in HEK-293 clonal cells expressing hGLP-1R, 0.1% bovine casein, without or with 1.0% human serum albumin. On the set-up: expressed in transfected cells. Conditions: for EC50: geometric mean, read-out: hGLP-1R EC50, nM (SEM, n); for Emax: read-out: hGLP-1R Emax, % ± SEM. In a few lines: (§1)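 Cells were stimulated with peptide for 30 min at 37° C, then intracellular cAMP was measured by competitive HTRF (665/620 nm ratio) and converted to nM using a cAMP standard curve. Relative EC50 and Emax came from four-parameter logistic fits of percent maximal response against peptide concentration.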
Sequence of hGLP-1R (P43220 24-463): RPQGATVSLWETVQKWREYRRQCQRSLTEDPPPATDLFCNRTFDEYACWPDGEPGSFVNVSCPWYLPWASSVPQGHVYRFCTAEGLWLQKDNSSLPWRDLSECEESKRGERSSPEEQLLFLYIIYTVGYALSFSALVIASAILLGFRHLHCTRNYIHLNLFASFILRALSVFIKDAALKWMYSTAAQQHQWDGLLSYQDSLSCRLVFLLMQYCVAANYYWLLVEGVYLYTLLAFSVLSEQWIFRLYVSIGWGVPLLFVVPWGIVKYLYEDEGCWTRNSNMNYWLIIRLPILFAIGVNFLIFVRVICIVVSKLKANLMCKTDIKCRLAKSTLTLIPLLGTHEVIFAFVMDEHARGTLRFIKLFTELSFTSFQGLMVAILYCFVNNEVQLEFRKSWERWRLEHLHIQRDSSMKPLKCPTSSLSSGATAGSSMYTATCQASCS
For orientation: cAMP levels reflect the balance of adenylyl cyclase and phosphodiesterase activity.

The target in test [2] is T1, hGIPR (Homo sapiens, UniProt P48546).
T1 construct: expressed in transfected cells
T1 sequence (P48546 22-466): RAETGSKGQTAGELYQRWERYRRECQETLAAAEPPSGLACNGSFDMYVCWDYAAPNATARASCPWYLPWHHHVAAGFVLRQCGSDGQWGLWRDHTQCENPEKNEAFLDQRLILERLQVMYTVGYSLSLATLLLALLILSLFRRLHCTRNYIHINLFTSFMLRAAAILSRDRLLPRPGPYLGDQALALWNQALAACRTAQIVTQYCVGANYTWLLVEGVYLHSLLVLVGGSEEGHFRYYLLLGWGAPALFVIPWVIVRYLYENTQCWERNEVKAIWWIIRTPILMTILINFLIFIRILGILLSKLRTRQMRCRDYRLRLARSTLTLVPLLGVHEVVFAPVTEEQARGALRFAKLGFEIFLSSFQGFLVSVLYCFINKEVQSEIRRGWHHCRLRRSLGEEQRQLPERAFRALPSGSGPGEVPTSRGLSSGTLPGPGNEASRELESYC
The experiment in a line: Functional cAMP formation (HTRF) in HEK-293 clonal cells expressing hGIPR, 0.1% bovine casein, without or with 1.0% human serum albumin. The conditions noted are these: for Emax: read-out: hGIPR Emax, % ± SEM; for EC50: geometric mean, read-out: hGIPR EC50, nM (SEM, n). In a few lines: as §1

In test [3] the target is T2, hGCGR (Homo sapiens, UniProt P47871).
T2 construct: expressed in transfected cells
T2 sequence (P47871 26-477): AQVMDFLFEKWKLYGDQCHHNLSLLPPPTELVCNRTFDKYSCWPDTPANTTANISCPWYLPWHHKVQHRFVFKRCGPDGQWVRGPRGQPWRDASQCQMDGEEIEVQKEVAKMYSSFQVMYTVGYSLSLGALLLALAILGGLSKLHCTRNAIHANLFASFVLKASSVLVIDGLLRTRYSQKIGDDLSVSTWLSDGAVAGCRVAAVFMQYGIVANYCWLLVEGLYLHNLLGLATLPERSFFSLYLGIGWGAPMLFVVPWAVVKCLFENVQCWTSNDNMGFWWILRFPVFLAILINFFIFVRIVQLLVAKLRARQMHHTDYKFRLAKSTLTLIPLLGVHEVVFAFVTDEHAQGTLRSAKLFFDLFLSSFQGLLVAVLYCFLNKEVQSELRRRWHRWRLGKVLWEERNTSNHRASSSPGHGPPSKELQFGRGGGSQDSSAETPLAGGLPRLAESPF
Nature of the test: Functional cAMP formation (HTRF) in HEK-293 clonal cells expressing hGCGR, 0.1% bovine casein, without or with 1.0% human serum albumin. The conditions noted are these: geometric mean, read-out: hGCGR EC50, nM (SEM, n). The method, boiled down:
as §1

Setting [4] is: 0.1% bovine casein and 1.0% human serum albumin, 37° C.
The mark [5] stands for this setting: HEK293, 0.1% bovine casein and 1.0% human serum albumin, 37° C., percent of maximal response to GLP-1(7-36)NH2.
Where [6] appears, read: HEK293, 0.1% bovine casein and 1.0% human serum albumin, 37° C., percent of maximal response to GIP(1-42)NH2.
[7] abbreviates: HEK293, percent of maximal response to GIP(1-42)NH2, 37° C., 0.1% bovine casein, arithmetic mean.
[8] abbreviates: cAMP, incubated at 37° C., 0.1% bovine casein (no human serum albumin).
Where [9] appears, read: HEK293, percent of maximal response to GLP-1(7-36)NH2, 37° C., 0.1% bovine casein, arithmetic mean.

One may read the EC50 as the concentration that produces a half-maximal response. A word on the Emax: it is the maximal effect, on the per cent scale that the assay sets. With `CC[C@H](C)[C@H](NC(=O)[C@H](CC(C)C)NC(=O)[C@](C)(Cc1ccc(O)cc1)NC(=O)[C@@H](CCC(=O)O)NC(=O)[C@@H](NC(=O)[C@H](Cc1ccccc1)NC(=O)[C@H](CCC(=O)O)NC(=O)C(C)(C)NC(=O)[C@H](CCC(N)=O)NC(=O)[C@H](C)NC(=O)[C@H](CCCCNC(=O)COCCOCCNC(=O)COCCOCCNC(=O)CC[C@H](NC(=O)CCCCCCCCCCCCC(=O)O)C(=O)O)NC(=O)[C@H](CCCN)NC(=O)[C@H](CC(=O)O)NC(=O)[C@H](CC(C)C)NC(=O)[C@](C)(CC(C)C)NC(=O)[C@@H](NC(=O)[C@H](CN)NC(=O)[C@H](Cc1ccc(O)cc1)NC(=O)[C@H](CC(=O)O)NC(=O)[C@H](CO)NC(=O)[C@@H](NC(=O)[C@](C)(Cc1ccccc1F)NC(=O)[C@@H](NC(=O)CNC(=O)[C@H](CCC(=O)O)NC(=O)C(C)(C)NC(=O)[C@@H](N)Cc1ccc(O)cc1)[C@@H](C)O)[C@@H](C)O)[C@@H](C)CC)[C@@H](C)CC)C(=O)N[C@@H](CCC(=O)O)C(=O)NCC(=O)NCC(=O)N[C@@H](CCCCNC(=O)COCCOCCNC(=O)COCCOCCNC(=O)CC[C@H](NC(=O)CCCCCCCCCCCCC(=O)O)C(=O)O)C(=O)N[C@@H](CO)C(=O)N[C@@H](CO)C(=O)NCC(=O)N[C@@H](C)C(=O)N1CCC[C@H]1C(=O)N1CCC[C@H]1C(=O)N1CCC[C@H]1C(=O)N[C@@H](CO)C(N)=O` [Example 200], the EC50 in test [1] (setting [4]) is 26.6 nM; in test [3] (setting [4]), more than 9950 nM; in test [3] (setting [8]), more than 9950 nM. For the same compound, the Emax came out at 97.4% in test [1] (setting [5]), 83.7% in test [2] (setting [6]) and 96.3 ± 2.76% in test [2] (setting [7]).

In the case of `CC[C@H](C)[C@H](NC(=O)[C@H](CC(C)C)NC(=O)[C@H](CCCCNC(=O)COCCOCCNC(=O)COCCOCCNC(=O)CC[C@H](NC(=O)CCCc1ccc(C(C)(C)C)cc1)C(=O)O)NC(=O)[C@@H](CCC(=O)O)NC(=O)[C@@H](NC(=O)[C@H](Cc1ccccc1)NC(=O)[C@H](CCC(=O)O)NC(=O)C(C)(C)NC(=O)[C@H](CCC(N)=O)NC(=O)[C@H](C)NC(=O)[C@H](CCCCNC(=O)COCCOCCNC(=O)COCCOCCNC(=O)CC[C@H](NC(=O)CCCc1ccc(C(C)(C)C)cc1)C(=O)O)NC(=O)[C@H](CCCN)NC(=O)[C@H](CC(=O)O)NC(=O)[C@H](CC(C)C)NC(=O)[C@](C)(CC(C)C)NC(=O)[C@@H](NC(=O)[C@H](CO)NC(=O)[C@H](Cc1ccncc1)NC(=O)[C@H](CC(=O)O)NC(=O)[C@H](CO)NC(=O)[C@@H](NC(=O)[C@](C)(Cc1ccccc1F)NC(=O)[C@@H](NC(=O)CNC(=O)[C@H](CCC(=O)O)NC(=O)C(C)(C)NC(=O)[C@@H](N)Cc1ccc(O)cc1)[C@@H](C)O)[C@@H](C)O)[C@@H](C)CC)[C@@H](C)CC)C(=O)N[C@@H](CCC(=O)O)C(=O)NCC(=O)NCC(=O)N1CCC[C@H]1C(=O)N[C@@H](CO)C(=O)N[C@@H](CO)C(=O)NCC(=O)N[C@@H](C)C(=O)N1CCC[C@H]1C(=O)N1CCC[C@H]1C(=O)N1CCC[C@H]1C(=O)N[C@@H](CO)C(N)=O` [Example 67], the EC50 in test [1] (setting [4]) was 12 nM; in test [1] (setting [8]) it was 2.63 nM; in test [2] (setting [4]) it was 0.0417 nM; in test [3] (setting [4]), more than 9950 nM; in test [3] (setting [8]), more than 9950 nM. Moreover, the Emax is 91.7% in test [1] (setting [9]), 91.9% in test [2] (setting [6]) and 95% in test [2] (setting [7]).

Regarding `CC[C@H](C)[C@H](NC(=O)[C@H](CC(C)C)NC(=O)[C@](C)(Cc1ccc(O)cc1)NC(=O)[C@@H](CCC(=O)O)NC(=O)[C@@H](NC(=O)[C@H](Cc1ccccc1)NC(=O)[C@H](CCC(=O)O)NC(=O)C(C)(C)NC(=O)[C@H](CCC(N)=O)NC(=O)[C@H](C)NC(=O)[C@H](CCCCNC(=O)COCCOCCNC(=O)COCCOCCNC(=O)[C@@H](N)CCCCNC(=O)CCCCCCCCCCCCC(=O)O)NC(=O)[C@H](CCCN)NC(=O)[C@H](CC(=O)O)NC(=O)[C@H](CC(C)C)NC(=O)[C@](C)(CC(C)C)NC(=O)[C@@H](NC(=O)C(C)(C)NC(=O)[C@@H](NC(=O)[C@H](CC(=O)O)NC(=O)[C@H](CO)NC(=O)[C@@H](NC(=O)[C@](C)(Cc1ccccc1F)NC(=O)[C@@H](NC(=O)CNC(=O)[C@H](CCC(=O)O)NC(=O)C(C)(C)NC(=O)[C@@H](N)Cc1ccc(O)cc1)[C@@H](C)O)[C@@H](C)O)C(C)C)[C@@H](C)CC)[C@@H](C)CC)C(=O)N[C@@H](CCC(=O)O)C(=O)NCC(=O)NCC(=O)N[C@@H](CCCCNC(=O)COCCOCCNC(=O)COCCOCCNC(=O)[C@@H](N)CCCCNC(=O)CCCCCCCCCCCCC(=O)O)C(=O)N[C@@H](CO)C(=O)N[C@@H](CO)C(=O)NCC(=O)N[C@@H](C)C(=O)N1CCC[C@H]1C(=O)N1CCC[C@H]1C(=O)N1CCC[C@H]1C(=O)N[C@@H](CO)C(N)=O` [Example 163], the results for the Emax in test [1] (setting [9]) and in test [2] (setting [7]) were 86.3% and 98.2%, respectively. The EC50 in test [1] (setting [8]) is 0.199 nM; in test [2] (setting [8]), 0.0427 nM; in test [3] (setting [8]), more than 9950 nM.

In the case of `CC[C@H](C)[C@H](NC(=O)[C@H](CCCN)NC(=O)[C@H](CC(=O)O)NC(=O)[C@H](CC(C)C)NC(=O)[C@](C)(CC(C)C)NC(=O)[C@@H](NC(=O)[C@H](CO)NC(=O)[C@H](Cc1ccncc1)NC(=O)[C@H](CC(=O)O)NC(=O)[C@H](CO)NC(=O)[C@@H](NC(=O)[C@](C)(Cc1ccccc1F)NC(=O)[C@@H](NC(=O)CNC(=O)[C@H](CCC(=O)O)NC(=O)C(C)(C)NC(=O)[C@@H](N)Cc1ccc(O)cc1)[C@@H](C)O)[C@@H](C)O)[C@@H](C)CC)C(=O)N[C@@H](C)C(=O)N[C@@H](CCC(N)=O)C(=O)NC(C)(C)C(=O)N[C@@H](CCCCNC(=O)COCCOCCNC(=O)COCCOCCNC(=O)COCCOCCNC(=O)CC[C@H](NC(=O)CCCCCCCCCCCCC(=O)O)C(=O)O)C(=O)N[C@@H](Cc1ccccc1)C(=O)N[C@H](C(=O)N[C@H](CCC(=O)O)C(=O)N[C@@](C)(Cc1ccc(O)cc1)C(=O)N[C@@H](CC(C)C)C(=O)N[C@H](C(=O)N[C@@H](CCC(=O)O)C(=O)NCC(=O)NCC(=O)N1CCC[C@H]1C(=O)N[C@@H](CO)C(=O)N[C@@H](CO)C(=O)NCC(=O)N[C@@H](C)C(=O)N1CCC[C@H]1C(=O)N1CCC[C@H]1C(=O)N1CCC[C@H]1C(=O)N[C@@H](CO)C(=O)N[C@@H](CCCCNC(=O)COCCOCCNC(=O)COCCOCCNC(=O)COCCOCCNC(=O)CC[C@H](NC(=O)CCCCCCCCCCCCC(=O)O)C(=O)O)C(N)=O)[C@@H](C)CC)[C@@H](C)CC` [Example 228], the Emax in test [1] (setting [5]) came to 119%; in test [1] (setting [9]) it was 91.1%; in test [2] (setting [6]) it was 83.3%; in test [2] (setting [7]), 110%. The EC50 in test [1] (setting [8]) is 1.34 nM; in test [2] (setting [8]), 0.0232 nM; in test [3] (setting [4]), more than 9950 nM; in test [3] (setting [8]) it was more than 9950 nM.

As to `CC[C@H](C)[C@H](NC(=O)[C@H](CCCN)NC(=O)[C@H](CC(=O)O)NC(=O)[C@H](CC(C)C)NC(=O)[C@](C)(CC(C)C)NC(=O)[C@@H](NC(=O)[C@H](CO)NC(=O)[C@H](Cc1ccncc1)NC(=O)[C@H](CC(=O)O)NC(=O)[C@H](CO)NC(=O)[C@@H](NC(=O)[C@](C)(Cc1ccccc1F)NC(=O)[C@@H](NC(=O)CNC(=O)[C@H](CCC(=O)O)NC(=O)C(C)(C)NC(=O)[C@@H](N)Cc1ccc(O)cc1)[C@@H](C)O)[C@@H](C)O)[C@@H](C)CC)C(=O)N[C@@H](C)C(=O)N[C@@H](CCC(N)=O)C(=O)NC(C)(C)C(=O)N[C@@H](CCC(=O)O)C(=O)N[C@@H](Cc1ccccc1)C(=O)N[C@H](C(=O)N[C@@H](CCCCNC(=O)[C@@H](N)CCCCNC(=O)[C@@H](N)CCCCNC(=O)CC[C@H](NC(=O)CCCCCCCCCCCCC(=O)O)C(=O)O)C(=O)N[C@@](C)(Cc1ccc(O)cc1)C(=O)N[C@@H](CC(C)C)C(=O)N[C@H](C(=O)N[C@@H](CCC(=O)O)C(=O)NCC(=O)NCC(=O)N[C@@H](CCCCNC(=O)[C@@H](N)CCCCNC(=O)[C@@H](N)CCCCNC(=O)CC[C@H](NC(=O)CCCCCCCCCCCCC(=O)O)C(=O)O)C(=O)N[C@@H](CO)C(=O)N[C@@H](CO)C(=O)NCC(=O)N[C@@H](C)C(=O)N1CCC[C@H]1C(=O)N1CCC[C@H]1C(=O)N1CCC[C@H]1C(=O)N[C@@H](CO)C(N)=O)[C@@H](C)CC)[C@@H](C)CC` [Example 198], the EC50 was 14.5 nM in test [1] (setting [4]); 0.362 nM in test [1] (setting [8]); 0.0269 nM in test [2] (setting [8]); more than 9950 nM in test [3] (setting [4]); more than 9950 nM in test [3] (setting [8]). Besides, the Emax is 83.1 ± 3.45% in test [2] (setting [6]) and 94 ± 1.17% in test [2] (setting [7]).
